Results reported in ChEMBL document CHEMBL1201862, “PubChem BioAssay data set” (2004).
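Cells were grown in 96-well plates and exposed to each compound for 48 hours at five concentrations; endpoints were interpolated linearly between bracketing concentrations, or set to the highest concentration if not reached. GI50: concentration for 50% inhibition of growth.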 Active and inactive are the calls of the source. Rule as the data show it: active = GI50 up to about 1.1 µM and inactive = higher.

Columns and labels:
Experiment in all cases: NCI anticancer screen, dose series, 48 h
[1] = system: 786-0
[2] = system: A498
[3] = system: A549
[4] = system: ACHN
[5] = system: CAKI-1
[6] = system: CCRF-CEM
[7] = system: COLO 205
[8] = system: DLD-1
[9] = system: DMS-114
[10] = system: DMS-273
[11] = system: EKVX
[12] = system: HCC 2998
[13] = system: HCT-116
[14] = system: HCT-15
[15] = system: HL-60
[16] = system: HOP-18
[17] = system: HOP-62
[18] = system: HOP-92
[19] = system: HT-29
[20] = system: IGROV-1
[21] = system: K562
[22] = system: KM-20L2
[23] = system: KM12
[24] = system: LOX IMVI
[25] = system: LXFL 529
[26] = system: M14
[27] = system: M19-MEL
[28] = system: MOLT-4
[29] = system: Malme-3M
[30] = system: NCI-H226
[31] = system: NCI-H23
[32] = system: NCI-H460
[33] = system: NCI-H522
[34] = system: OVCAR-3
[35] = system: OVCAR-4
[36] = system: OVCAR-5
[37] = system: OVCAR-8
[38] = system: RPMI-8226
[39] = system: RXF 393
[40] = system: RXF 631
[41] = system: SF-268
[42] = system: SF-295
[43] = system: SF-539
[44] = system: SK-MEL-28
[45] = system: SK-MEL-2
[46] = system: SK-MEL-5
[47] = system: SK-OV-3
[48] = system: SN12C
[49] = system: SNB-19
[50] = system: SNB-75
[51] = system: SNB-78
[52] = system: SR
[53] = system: SW-620
[54] = system: TK-10
[55] = system: U-251
[56] = system: UACC-257
[57] = system: UACC-62
[58] = system: UO-31
[59] = system: XF498

Measured: GI50

CC1=C(C(=O)Nc2ccccc2C)C(c2ccc(Cl)c(Cl)c2)C(C(=O)Nc2ccccc2C)=C(C)N1
17.2 µM: [14]
inactive: [1] 24.7 µM | [2] 27.5 µM | [3] 24.2 µM | [4] 27.3 µM | [5] 26.7 µM | [6] 22.7 µM | [7] 16.4 µM | [8] 27.9 µM | [9] 17.4 µM | [10] 16.7 µM | [11] 34.1 µM | [12] 25.6 µM | [13] 16 µM | [15] 15.1 µM | [16] 22.9 µM | [17] 28.6 µM | [18] 14.4 µM | [19] 20 µM | [20] 19 µM | [21] 20.3 µM | [22] 16.1 µM | [23] 26.2 µM | [24] 20.9 µM | [25] 14.4 µM | [26] 16.6 µM | [27] 19.7 µM | [28] 12.6 µM | [29] 22.5 µM | [30] 15.2 µM | [31] 19.8 µM | [32] 15.8 µM | [33] 14.5 µM | [34] 17.6 µM | [35] 16.4 µM | [36] 23.1 µM | [37] 37.2 µM | [38] 16.1 µM | [39] 20.1 µM | [40] 19.8 µM | [41] 20.3 µM | [42] 21.6 µM | [43] 25.5 µM | [44] 25.8 µM | [45] 16.1 µM | [46] 17.5 µM | [47] 22.9 µM | [48] 18.7 µM | [49] 44.2 µM | [50] 36.5 µM | [51] 29.4 µM | [52] 12.7 µM | [53] 31.6 µM | [54] 21.7 µM | [55] 19.3 µM | [56] 19.9 µM | [57] 17.4 µM | [58] 25.7 µM | [59] 26.2 µM
